Target: T1, CFTR (Homo sapiens, UniProt P13569, DEL508-508)
T1 construct: endogenous in cells; host or cells: primary human bronchial epithelial cells from CF subjects (F508del/MF-HBE), differentiated at air-liquid interface
Experiment: HBE2 assay: Ussing chamber assay of CFTR-mediated short-circuit currents
Type: cell-based
Conditions: 3 μM corrector; F508del/MF-HBE cells; with 44 nM potentiator, 18-24 hours, 20% human serum
Procedure, shortened: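 Corrector activity read as CFTR-dependent ISC (μA/cm^2): peak forskolin current minus post-inhibitor steady state. Measured at 37 °C, voltage clamp at 0 mV, on F508del/MF-HBE epithelia grown >14 days air-liquid interface in Ussing chambers.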

T1 sequence (P13569 with tags, fused parts or gaps DEL508-508): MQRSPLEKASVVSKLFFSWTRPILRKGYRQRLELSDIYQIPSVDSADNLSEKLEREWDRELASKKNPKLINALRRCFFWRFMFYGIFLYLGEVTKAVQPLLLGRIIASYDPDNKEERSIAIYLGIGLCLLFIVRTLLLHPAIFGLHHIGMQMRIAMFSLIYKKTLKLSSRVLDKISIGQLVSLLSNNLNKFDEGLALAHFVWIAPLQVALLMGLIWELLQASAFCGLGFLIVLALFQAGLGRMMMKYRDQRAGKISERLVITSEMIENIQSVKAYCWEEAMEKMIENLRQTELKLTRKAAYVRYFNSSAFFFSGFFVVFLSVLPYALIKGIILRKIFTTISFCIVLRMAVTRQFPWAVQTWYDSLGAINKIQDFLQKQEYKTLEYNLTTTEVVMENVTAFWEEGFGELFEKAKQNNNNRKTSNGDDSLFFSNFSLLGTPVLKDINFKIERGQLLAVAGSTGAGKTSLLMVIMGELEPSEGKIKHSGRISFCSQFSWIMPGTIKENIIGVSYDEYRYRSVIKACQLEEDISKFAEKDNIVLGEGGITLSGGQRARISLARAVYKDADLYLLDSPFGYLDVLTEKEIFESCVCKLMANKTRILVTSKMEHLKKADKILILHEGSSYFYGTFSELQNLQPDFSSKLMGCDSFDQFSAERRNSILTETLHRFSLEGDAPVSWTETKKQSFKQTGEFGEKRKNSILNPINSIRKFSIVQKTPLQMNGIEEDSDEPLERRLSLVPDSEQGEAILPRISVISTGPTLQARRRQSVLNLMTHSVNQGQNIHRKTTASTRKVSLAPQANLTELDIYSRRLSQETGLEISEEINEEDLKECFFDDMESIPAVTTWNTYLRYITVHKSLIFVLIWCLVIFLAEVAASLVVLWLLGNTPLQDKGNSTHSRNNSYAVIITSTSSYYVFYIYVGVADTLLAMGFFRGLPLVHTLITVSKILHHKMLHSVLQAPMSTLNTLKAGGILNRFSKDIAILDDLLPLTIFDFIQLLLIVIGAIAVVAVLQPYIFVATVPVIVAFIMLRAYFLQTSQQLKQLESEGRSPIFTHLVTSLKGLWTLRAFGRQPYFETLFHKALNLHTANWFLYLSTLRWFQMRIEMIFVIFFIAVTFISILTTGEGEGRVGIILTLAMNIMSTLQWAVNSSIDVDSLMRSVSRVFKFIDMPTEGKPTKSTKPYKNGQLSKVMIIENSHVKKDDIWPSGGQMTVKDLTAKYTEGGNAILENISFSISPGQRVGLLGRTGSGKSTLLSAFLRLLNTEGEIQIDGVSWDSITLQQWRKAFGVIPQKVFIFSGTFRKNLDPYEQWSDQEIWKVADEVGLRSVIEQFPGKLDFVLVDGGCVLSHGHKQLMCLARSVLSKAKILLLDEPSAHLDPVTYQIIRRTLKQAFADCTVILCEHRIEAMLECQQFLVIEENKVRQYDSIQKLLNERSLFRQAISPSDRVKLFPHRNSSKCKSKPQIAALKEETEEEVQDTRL

Compound | HBE2 Activity at 3 μM (%)
Cc1cccc(C)c1-c1cc2nc(n1)NS(=O)(=O)c1cccc(c1)C(=O)N(Cc1cncc(N(C)CC(C)C)n1)[C@H](CCC(C)C)CO2 [Compound 1763] | +++ (+++ is >60+)
CCN(c1cncc(CN2C(=O)c3cccc(c3)S(=O)(=O)Nc3nc(cc(-c4c(C)cccc4C)n3)OC[C@H]2CCC(C)C)n1)C1CCC1 [Compound 1764] | +++ (+++ is >60+)
Cc1cccc(C)c1-c1cc2nc(n1)NS(=O)(=O)c1cccc(c1)C(=O)N(Cc1cncc(N(C)C3CCC3)n1)[C@@H]1CCN(CCC(C)(C)C)C[C@H]1O2 [Compound 1766] | +++ (+++ is >60+)
Cc1cccc(C)c1-c1cc2nc(n1)NS(=O)(=O)c1cccc(c1)C(=O)N(Cc1cncc(N(C)C3CCC3)n1)[C@@H]1CCN(C3CC4(CC4)C3)C[C@H]1O2 [Compound 1767] | +++ (+++ is >60+)
Cc1cccc(C)c1-c1cc2nc(n1)NS(=O)(=O)c1cccc(c1)C(=O)N(Cc1cncc(N(C)C3CCC3)n1)[C@@H]1CCN(C3CC4(CCCC4)C3)C[C@H]1O2 [Compound 1768] | +++ (+++ is >60+)
Cc1cccc(C)c1-c1cc2nc(n1)NS(=O)(=O)c1cccc(c1)C(=O)N(Cc1cncc(N3CC(F)(F)[C@H]3C)n1)[C@H](CC(C)(C)C)CO2 [Compound 1769] | +++ (+++ is >60+)
Cc1cccc(C)c1-c1cc2nc(n1)NS(=O)(=O)c1cccc(c1)C(=O)N(Cc1cncc(N(C)C3CCC3)n1)[C@H](CC(C)C)CCO2 [Compound 1770] | +++ (+++ is >60+)
Cc1cccc(C)c1-c1cc2nc(n1)NS(=O)(=O)c1cccc(c1)C(=O)N(Cc1cncc(N(C)C(C)C)n1)[C@H](CCC(C)C)CO2 [Compound 1771] | +++ (+++ is >60+)
Cc1cccc(C)c1-c1cc2nc(n1)NS(=O)(=O)c1cccc(c1)C(=O)N(Cc1cncc(N(C)CC(C)C)n1)[C@H](CC1(C)CCC1)CO2 [Compound 1774] | +++ (+++ is >60+)
Cc1cccc(C)c1-c1cc2nc(n1)NS(=O)(=O)c1cccc(c1)C(=O)N(Cc1cncc(N3CCC[C@H]3C(C)C)n1)[C@H](CC1(C)CCC1)CO2 [Compound 1775] | +++ (+++ is >60+)
Cc1cccc(C)c1-c1cc2nc(n1)NS(=O)(=O)c1cccc(c1)C(=O)N(Cc1cccc(N3CCC[C@H]3C(C)C)n1)[C@H](CC1(C)CCC1)CO2 [Compound 1776] | +++ (+++ is >60+)
Cc1cccc(C)c1-c1cc2nc(n1)NS(=O)(=O)c1cccc(c1)C(=O)N(Cc1cccc(N3CCC[C@H]3C)n1)[C@H](CC1(C)CCC1)CO2 [Compound 1777] | +++ (+++ is >60+)
Cc1cccc(C)c1-c1cc2nc(n1)NS(=O)(=O)c1cccc(c1)C(=O)N(Cc1cncc(N3CC[C@H]3C)n1)[C@H](CC1CC1)CO2 [Compound 1778] | +++ (+++ is >60+)
CCC(CC)[C@@H]1COc2cc(-c3c(C)cccc3C)nc(n2)NS(=O)(=O)c2cccc(c2)C(=O)N1Cc1cncc(N(C)C2CCC2)n1 [Compound 1779] | +++ (+++ is >60+)
CCN(CC1CC1)c1cncc(CN2C(=O)c3cccc(c3)S(=O)(=O)Nc3nc(cc(-c4c(C)cccc4C)n3)OC[C@H]2CC(C)(C)C)n1 [Compound 1780] | +++ (+++ is >60+)
Cc1cccc(C)c1-c1cc2nc(n1)NS(=O)(=O)c1cccc(c1)C(=O)N(Cc1cncc(N3CCC[C@@H](C)[C@H]3C)n1)[C@H](CC(C)(C)C)CO2 [Compound 1783] | +++ (+++ is >60+)
Cc1cccc(C)c1-c1cc2nc(n1)NS(=O)(=O)c1cccc(c1)C(=O)N(Cc1cncc(N(C)C3CC4CCC43)n1)[C@H](CC(C)(C)C)CO2 (stereo partly shown) [Compound 1784] | +++ (+++ is >60+)
Cc1cccc(C)c1-c1cc2nc(n1)NS(=O)(=O)c1cccc(c1)C(=O)N(Cc1cncc(N(C)C3CCC3C)n1)[C@H](CC(C)(C)C)CO2 (stereo partly shown) [Compound 1785] | +++ (+++ is >60+)
COC[C@@H]1CCN1c1cncc(CN2C(=O)c3cccc(c3)S(=O)(=O)Nc3nc(cc(-c4c(C)cccc4C)n3)OC[C@H]2CC2CC2)n1 [Compound 1786] | +++ (+++ is >60+)
Cc1cccc(C)c1-c1cc2nc(n1)NS(=O)(=O)c1cccc(c1)C(=O)N(Cc1cncc(N3CCC[C@H]3C)n1)[C@H](CC1CC1)CO2 [Compound 1787] | +++ (+++ is >60+)
Cc1cccc(C)c1-c1cc2nc(n1)NS(=O)(=O)c1cccc(c1)C(=O)N(Cc1cncc(N(C)C(C)C)n1)[C@H](CCC(C)(C)C)CO2 [Compound 1788] | +++ (+++ is >60+)

Next, values leading:

HBE2 Activity at 3 μM (%) | Compound
+++ (+++ is >60+) | Cc1cccc(C)c1-c1cc2nc(n1)NS(=O)(=O)c1cccc(c1)C(=O)N(Cc1cccc(N3CCC[C@H]3C)n1)[C@H](CCC(C)(C)C)CO2 [Compound 1789]
+++ (+++ is >60+) | Cc1cccc(C)c1-c1cc2nc(n1)NS(=O)(=O)c1cccc(c1)C(=O)N(Cc1cccc(N(C)C(C)C)n1)[C@H](CCC(C)(C)C)CO2 [Compound 1790]
+++ (+++ is >60+) | Cc1cccc(C)c1-c1cc2nc(n1)NS(=O)(=O)c1cccc(c1)C(=O)N(Cc1cncc(N(C)CC(C)C)n1)[C@H](CCC(C)(C)C)CO2 [Compound 1791]
+++ (+++ is >60+) | Cc1cccc(C)c1-c1cc2nc(n1)NS(=O)(=O)c1cccc(c1)C(=O)N(Cc1cncc(N3CCCC[C@H]3C)n1)[C@H](CC1CC1)CO2 [Compound 1792]
+++ (+++ is >60+) | Cc1cccc(C)c1-c1cc2nc(n1)NS(=O)(=O)c1cccc(c1)C(=O)N(Cc1cncc(N3CCCC4CCC43)n1)[C@H](CC1(C)CCC1)CO2 (stereo partly shown) [Compound 1793]
+++ (+++ is >60+) | Cc1cccc(C)c1-c1cc2nc(n1)NS(=O)(=O)c1cccc(c1)C(=O)N(Cc1cncc(N3CCCC4CCC43)n1)[C@H](CC1(C)CCC1)CO2 (stereo partly shown) [Compound 1794]
+++ (+++ is >60+) | Cc1cccc(C)c1-c1cc2nc(n1)NS(=O)(=O)c1cccc(c1)C(=O)N(Cc1cncc(N(C)CC(C)(C)C)n1)[C@H](CCC(C)C)CO2 [Compound 1795]
+++ (+++ is >60+) | Cc1cccc(C)c1-c1cc2nc(n1)NS(=O)(=O)c1cccc(c1)C(=O)N(Cc1cncc(N(C)C3CC4(CC4)C3)n1)[C@H](CCC(C)C)CO2 [Compound 1796]
+++ (+++ is >60+) | Cc1cccc(C)c1-c1cc2nc(n1)NS(=O)(=O)c1cccc(c1)C(=O)N(Cc1cncc(N3CC[C@H]3C(C)C)n1)[C@H](CCC(C)(C)C)CO2 [Compound 1797]
+++ (+++ is >60+) | Cc1cccc(C)c1-c1cc2nc(n1)NS(=O)(=O)c1cccc(c1)C(=O)N(Cc1cncc(N3C[C@H]4CCCC[C@H]43)n1)[C@H](CC(C)(C)C)CO2 [Compound 1800]
+++ (+++ is >60+) | Cc1cccc(C)c1-c1cc2nc(n1)NS(=O)(=O)c1cccc(c1)C(=O)N(Cc1cncc(N3CC[C@H]3C)n1)[C@H](CC(C)(C)F)CO2 [Compound 1801]
+++ (+++ is >60+) | COC[C@@H]1CCN1c1cncc(CN2C(=O)c3cccc(c3)S(=O)(=O)Nc3nc(cc(-c4c(C)cccc4C)n3)OC[C@H]2CC(C)(C)F)n1 [Compound 1802]
+++ (+++ is >60+) | Cc1cccc(C)c1-c1cc2nc(n1)NS(=O)(=O)c1cccc(c1)C(=O)N(Cc1cncc(N3CCC[C@H]3C)n1)[C@H](CC(C)(C)F)CO2 [Compound 1803]
+++ (+++ is >60+) | Cc1cccc(C)c1-c1cc2nc(n1)NS(=O)(=O)c1cccc(c1)C(=O)N(Cc1cncc(N(C)C3CCC3)n1)[C@H](CC1CCCCC1)CO2 [Compound 1804]
+++ (+++ is >60+) | Cc1cccc(C)c1-c1cc2nc(n1)NS(=O)(=O)c1cccc(c1)C(=O)N(Cc1cncc(N3CCCC[C@H]3C)n1)[C@H](CC(C)(C)F)CO2 [Compound 1805]
+++ (+++ is >60+) | Cc1cccc(C)c1-c1cc2nc(n1)NS(=O)(=O)c1cccc(c1)C(=O)N(Cc1cncc(N(C)C)n1)[C@H](CCC(C)(C)C)CO2 [Compound 1806]
+++ (+++ is >60+) | CCN(C)c1cncc(CN2C(=O)c3cccc(c3)S(=O)(=O)Nc3nc(cc(-c4c(C)cccc4C)n3)OC[C@H]2CCC(C)(C)C)n1 [Compound 1807]
+++ (+++ is >60+) | CCN(c1cncc(CN2C(=O)c3cccc(c3)S(=O)(=O)Nc3nc(cc(-c4c(C)cccc4C)n3)OC[C@H]2CCC(C)(C)C)n1)C1CCC1 [Compound 1808]
+++ (+++ is >60+) | CCN(CC1CC1)c1cncc(CN2C(=O)c3cccc(c3)S(=O)(=O)Nc3nc(cc(-c4c(C)cccc4C)n3)OC[C@H]2CCC(C)(C)C)n1 [Compound 1809]
+++ (+++ is >60+) | Cc1cccc(C)c1-c1cc2nc(n1)NS(=O)(=O)c1cccc(c1)C(=O)N(Cc1cncc(N(C)CC3CC3)n1)[C@H](CCC(C)(C)C)CO2 [Compound 1810]
+++ (+++ is >60+) | CCN(CCOC)c1cncc(CN2C(=O)c3cccc(c3)S(=O)(=O)Nc3nc(cc(-c4c(C)cccc4C)n3)OC[C@H]2CCC(C)(C)C)n1 [Compound 1811]
+++ (+++ is >60+) | COCCN(C)c1cncc(CN2C(=O)c3cccc(c3)S(=O)(=O)Nc3nc(cc(-c4c(C)cccc4C)n3)OC[C@H]2CCC(C)(C)C)n1 [Compound 1812]
+++ (+++ is >60+) | Cc1cccc(C)c1-c1cc2nc(n1)NS(=O)(=O)c1cccc(c1)C(=O)N(Cc1cncc(N3CCC[C@H]3C3CC3)n1)[C@H](CCC(C)(C)C)CO2 [Compound 1813]
+++ (+++ is >60+) | Cc1cccc(C)c1-c1cc2nc(n1)NS(=O)(=O)c1cccc(c1)C(=O)N(Cc1cncc(N3CCC[C@H]3C)n1)[C@H](CCC(C)(C)C)CO2 [Compound 1814]
+++ (+++ is >60+) | Cc1cccc(C)c1-c1cc2nc(n1)NS(=O)(=O)c1cccc(c1)C(=O)N(Cc1cncc(N(C)C3CC(F)(F)C3)n1)[C@H](CCC(C)(C)C)CO2 [Compound 1815]
